Usually melting point stands for the temperature, or range, at which the solid turns liquid.

Structures can show the parent of a compound that is named as a salt.

The molecule `CC(C)(C)C(=O)O` [2,2-dimethylpropanoic_acid] showed a melting point of 36 °C.
Turning to `CC(Oc1c(Cl)cccc1Cl)C1=NCCN1` (centres undefined) [Lofexidine], the melting point turned out to be 127 °C.
Molecule `CCN(CC)CCOC(=O)C(O)(c1ccccc1)c1ccccc1` [benactyzin] returned a melting point of 51 °C.
Turning to `C1COCO1` [1,3-dioxolane], the melting point is -95 °C.
The molecule `Br/C(C)=CC` [2-bromo-cis-2-butene] returned a melting point of -111 °C.
In turn, `CCCCB(CCCC)CCCC` [tri-n-butylborane] displayed a melting point of -34 °C.
As for `C1CC[C@H]2CCCC[C@H]2C1` [cis-decalin], the melting point is -43 °C.
On to `CCN(CC)C(=O)Nc1ccc(OCC(O)CNC(C)(C)C)c(C(C)=O)c1` (centres undefined) [celiprolol], for which the melting point was found to be 110 °C.
Turning to `CC(=O)N[C@@H](CCC(=O)O)C(=O)O` [N-acetyl-l-glutamic acid], the melting point was determined as 197 °C.
In the case of `CC(C)(C)OC(=O)O/N=C(\C#N)c1ccccc1` [boc-on], the melting point is 88 °C.
Take `CCCCc1ccccc1` [N-butylbenzene]: the melting point was -88 °C.
Molecule `C=Cc1ccc(B(O)O)cc1` [4-vinylbenzeneboronic acid] returned a melting point of 190 °C.
Then `CC[C@H](C)C(=O)O[C@H]1C[C@@H](C)C=C2C=C[C@H](C)[C@H](CC[C@@H]3C[C@@H](O)CC(=O)O3)[C@H]21` [Lovastatin], with 175 °C; and `C[C@]12CCC(=O)C[C@@H]1CC[C@@H]1[C@@H]2CC[C@]2(C)[C@@H](O)CC[C@@H]12` [stanolone], with 181 °C.
Molecule `CCCCC(CC)COC(=O)CCCCC(=O)OCC(CC)CCCC` (centres undefined) [bis(2-ethylhexyl) adipate] had a melting point of -67 °C.
For `O=C(NNc1ccccc1)NNc1ccccc1` [N'',N'''-Diphenylcarbonohydrazide], the melting point was found to be 173 °C.
The molecule `Nc1ccc2ccc3cccc4ccc1c2c34` [1-aminopyrene] yielded a melting point of 118 °C.
Consider `COC(=O)/C=C/C(=O)OC` [dimethyl fumarate], for which the melting point came to 104 °C.
The figure for `C=C[C@H]1C[N@@]2CC[C@H]1C[C@@H]2[C@@H](O)c1ccnc2ccccc12` [(9S)-Cinchonan-9-ol] is 265 °C; for `CC(=O)Nc1cccc2c(N)cccc12` [N-(5-aminonaphthalen-1-yl)acetamide] it is 166 °C; for `Brc1cccc(I)c1` [m-bromoiodobenzene] it is -9 °C.
Regarding `O=C(N[C@H](CO)[C@H](O)c1ccc([N+](=O)[O-])cc1)C(Cl)Cl` [chloramphenicol], the melting point amounted to 151 °C.
As to `CC(=O)N(C1=NC(=O)/C(=C/c2cc(C)n(-c3ccc(C(F)(F)F)cc3)c2C)S1)c1ccccc1` [OSM-S-45], the melting point amounted to 310 °C.
With `CN[C@@H](C)[C@@H](O)c1ccccc1` [Pseudoephedrine], the melting point was 118 °C.
In turn, `c1ccncc1` [Pyridine] had a melting point of -42 °C.
`CCCCCCCCCCc1ccc(-c2ccccc2)cc1` [4-n-decylbiphenyl] gave a melting point of 53 °C.
With `O=C(O)/C=C/c1c(F)cccc1F` [2,6-difluorocinnamic acid], the melting point was determined as 125 °C.
On to `[2H]C([2H])=C(C(=O)OC([2H])([2H])[2H])C([2H])([2H])[2H]` [(~2~H_3_)Methyl 2-(~2~H_3_)methyl(~2~H_2_)prop-2-enoate], for which the melting point is -48 °C.
As to `CCCCCC=CCC=CCCCCCCCC(=O)O` (stereo in doubt) [linoleic acid], the melting point is -8.5 °C.
Molecule `c1ccc2c(c1)Nc1ccccc1S2` [Phenothazine] registered a melting point of 187 °C.
The figure for `C/C=C\c1ccccc1` [cis-1-phenyl-1-propene] is -62 °C.
Molecule `c1ccc(P(CCCP(c2ccccc2)c2ccccc2)c2ccccc2)cc1` [1,3-bis(diphenylphosphino)propane] returned a melting point of 61 °C.
Then `OCCCCCCO` [1,6-hexanediol], with 45 °C.
The figure for `NC1CONC1=O` (centres undefined) [Cycloserine] is 147 °C.

Values taken from the Bradley open melting point set (2014).
